{
  "source": "ChEMBL document CHEMBL5120765",
  "about": "“Synthesis of novel 1-phenyl-benzopyrrolizidin-3-one derivatives and evaluation of their cytoneuroprotective effects against NMDA-induced injury in PC12 cells” (Bioorg Med Chem, 2022)",
  "key": {"[1]": {"system": "PC-12", "test": "Neuroprotective effect against NMDA-induced rat PC-12 cells assessed as prevention of morphological changes at 15 uM", "format": "functional, cell-based"}, "[2]": {"system": "PC-12", "test": "Neuroprotective activity against NMDA-induced excitotoxicity in rat PC-12 cells assessed as increase in cell viability at 5 uM pretreated for 24 hr followed by NMDA addition and measured after 6 hrs by MTT assay", "format": "functional, cell-based", "conditions": "time 30.0 hrs"}, "[3]": {"system": "PC-12", "test": "Neuroprotective activity against NMDA-induced excitotoxicity in rat PC-12 cells assessed as increase in cell viability at 15 uM pretreated for 24 hr followed by NMDA addition and measured after 6 hrs by MTT assay", "format": "functional", "conditions": "time 30 hrs"}, "[4]": {"system": "PC-12", "test": "Neuroprotective activity against NMDA-induced excitotoxicity in rat PC-12 cells assessed as increase in cell viability at 20 uM pretreated for 24 hr followed by NMDA addition and measured after 6 hrs by MTT assay", "format": "functional"}, "[5]": {"system": "PC-12", "test": "Inhibition of NMDA-induced Ca2+ influx in rat PC-12 cells assessed as reduction in intracellular Ca2+ concentration at 15 uM pretreated for 24 hr followed by NMDA addition and measured after 6 hrs by Fluo2-AM staining based fluorescence microscopic method", "format": "functional, cell-based", "conditions": "time 30.0 hrs"}, "[6]": {"system": "PC-12", "test": "Neuroprotective activity against NMDA-induced excitotoxicity in rat PC-12 cells assessed as increase in cell viability pretreated for 24 hr followed by NMDA addition and measured after 6 hrs by MTT assay", "format": "functional, cell-based", "conditions": "dose 2.5-20 µM, time 30.0 hrs, DDE = dose-dependent effect"}},
  "note": "Activity calls are given as the source filed them. No cut-off for these calls is given here.",
  "data": [
    {"smiles": "O=C1C[C@@H](c2cccc(OCc3ccccc3)c2)[C@H]2Cc3c(F)cccc3N12", "note": "(racemic)", "values": [
      {"measurement": "Activity", "setting": "[1]", "value": "Active"},
      {"measurement": "Activity", "setting": "[2]", "value": "Active"},
      {"measurement": "Activity", "setting": "[3]", "value": 96.16, "unit": "%"},
      {"measurement": "Activity", "setting": "[4]; time 30 hrs", "value": 94.59, "unit": "%"},
      {"measurement": "inhibition", "setting": "[5]", "value": "Active"},
      {"measurement": "Activity", "setting": "[6]", "value": "Dde"}
    ]},
    {"smiles": "COc1c(OCc2ccccc2)cccc1[C@@H]1CC(=O)N2c3ccccc3C[C@H]12", "note": "(racemic)", "values": [
      {"measurement": "Activity", "setting": "[4]; time 30.0 hrs", "value": "Active"}
    ]},
    {"smiles": "COc1cc(OC)cc([C@@H]2CC(=O)N3c4ccccc4C[C@H]23)c1", "note": "(racemic)", "values": [
      {"measurement": "Activity", "setting": "[4]; time 30.0 hrs", "value": "Active"}
    ]},
    {"smiles": "COc1ccc([C@@H]2CC(=O)N3c4ccccc4C[C@H]23)cc1", "note": "(racemic)", "values": [
      {"measurement": "Activity", "setting": "[4]; time 30.0 hrs", "value": "Active"}
    ]},
    {"smiles": "COc1ccccc1[C@@H]1CC(=O)N2c3ccccc3C[C@H]12", "note": "(racemic)", "values": [
      {"measurement": "Activity", "setting": "[4]; time 30.0 hrs", "value": "Active"}
    ]},
    {"smiles": "O=C1C[C@@H](c2cccc(OCc3ccccc3)c2)[C@H]2Cc3cc(OCc4ccccc4)ccc3N12", "note": "(racemic)", "values": [
      {"measurement": "Activity", "setting": "[4]; time 30.0 hrs", "value": "Active"}
    ]},
    {"smiles": "O=C1C[C@@H](c2cccc(OCc3ccccc3)c2)[C@H]2Cc3ccccc3N12", "note": "(racemic)", "values": [
      {"measurement": "Activity", "setting": "[4]; time 30.0 hrs", "value": "Active"}
    ]},
    {"smiles": "O=C1C[C@@H](c2ccccc2)[C@H]2Cc3ccccc3N12", "note": "(racemic)", "values": [
      {"measurement": "Activity", "setting": "[4]; time 30.0 hrs", "value": "Active"}
    ]},
    {"smiles": "O=C1C[C@H](c2cccc(OCc3ccccc3)c2)[C@H]2Cc3c(F)cccc3N12", "note": "(racemic)", "values": [
      {"measurement": "Activity", "setting": "[4]; time 30.0 hrs", "value": "Active"}
    ]},
    {"smiles": "O=C1C[C@H](c2cccc(OCc3ccccc3)c2)[C@H]2Cc3ccccc3N12", "note": "(racemic)", "values": [
      {"measurement": "Activity", "setting": "[4]; time 30.0 hrs", "value": "Active"}
    ]},
    {"smiles": "C[C@]12N[C@H](Cc3ccccc31)c1ccccc12.O=C(O)/C=C\\C(=O)O", "note": "[DIZOCILPINE MALEATE]", "values": [
      {"measurement": "Activity", "setting": "[1]", "value": "Active"},
      {"measurement": "Activity", "setting": "[2]", "value": "Active"},
      {"measurement": "Activity", "setting": "[3]", "value": 96.96, "unit": "%"},
      {"measurement": "Activity", "setting": "[4]; time 30 hrs", "value": 95.48, "unit": "%"},
      {"measurement": "inhibition", "setting": "[5]", "value": "Active"},
      {"measurement": "Activity", "setting": "[6]", "value": "Dde"}
    ]}
  ]
}
